This is an account of results in PubChem BioAssay AID248 (DTP/NCI, 2004).

The subject of the assay is L1210 leukemia ip in BDF1 mice, survival T/C. Description: NCI In Vivo Anticancer Drug Screen. Data for tumor model L1210 Leukemia (intraperitoneal) in B6D2F1 (BDF1) mice. As to conditions: endpoint: mean survival time, higher = longer survival. The essentials:
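Ratio derived from survival: compound-dosed mice over vehicle-dosed mice, all bearing a transplantable tumor.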

The mark [1] stands for this setting: dose: 100.0 mg/kg/injection, schedule: Q04DX002 (ip), vehicle: Klucel (hydroxypropylcellulose) (HPC).
Where [2] appears, read: dose: 100.0 mg/kg/injection, schedule: Q01DX009 (ip), vehicle: Klucel (hydroxypropylcellulose) (HPC).
Setting [3] is: dose: 200.0 mg/kg/injection, schedule: Q01DX009 (ip), vehicle: Klucel (hydroxypropylcellulose) (HPC).
Where [4] appears, read: dose: 400.0 mg/kg/injection, schedule: Q01DX009 (ip), vehicle: Klucel (hydroxypropylcellulose) (HPC).
The mark [5] stands for this setting: dose: 100.0 mg/kg/injection, schedule: Q04DX003 (ip), vehicle: Klucel (hydroxypropylcellulose) (HPC).
The mark [6] stands for this setting: dose: 200.0 mg/kg/injection, schedule: Q04DX003 (ip), vehicle: Klucel (hydroxypropylcellulose) (HPC).
The mark [7] stands for this setting: dose: 400.0 mg/kg/injection, schedule: Q04DX003 (ip), vehicle: Klucel (hydroxypropylcellulose) (HPC).
Setting [8] is: dose: 75.0 mg/kg/injection, schedule: Q04DX002 (ip), vehicle: saline with Tween-80.
Where [9] appears, read: dose: 150.0 mg/kg/injection, schedule: Q04DX002 (ip), vehicle: saline with Tween-80.
The mark [10] stands for this setting: dose: 100.0 mg/kg/injection, schedule: Q04DX003 (ip), vehicle: saline with Tween-80.
Where [11] appears, read: dose: 200.0 mg/kg/injection, schedule: Q04DX003 (ip), vehicle: saline with Tween-80.
Where [12] appears, read: dose: 200.0 mg/kg/injection, schedule: Q04DX002 (ip), vehicle: Klucel (hydroxypropylcellulose) (HPC).
Setting [13] is: dose: 400.0 mg/kg/injection, schedule: Q04DX002 (ip), vehicle: Klucel (hydroxypropylcellulose) (HPC).
[14] abbreviates: dose: 100.0 mg/kg/injection, schedule: Q01DX001 (ip), vehicle: saline.
The mark [15] stands for this setting: dose: 100.0 mg/kg/injection, schedule: Q01DX001 (ip), vehicle: Klucel (hydroxypropylcellulose) (HPC).
Setting [16] is: dose: 200.0 mg/kg/injection, schedule: Q01DX001 (ip), vehicle: Klucel (hydroxypropylcellulose) (HPC).
Where [17] appears, read: dose: 400.0 mg/kg/injection, schedule: Q01DX001 (ip), vehicle: Klucel (hydroxypropylcellulose) (HPC).

Values joined by “and” are separate entries in the source; they are usually repeats but may differ in a detail not shown here. Equal entries are not always repeated. Toxic doses and inconclusive results are not listed.

Take `CCC(/C=N/N=C(N)N)OC` (configuration not stated): the T/C reads like this: (dose: 2.0 mg/kg/injection, schedule: Q01DX Z (oral), vehicle: saline) 103 % of control; (dose: 4.0 mg/kg/injection, schedule: Q01DX Z (oral), vehicle: saline) 101 % of control; (dose: 8.0 mg/kg/injection, schedule: Q01DX Z (oral), vehicle: saline) 106 % of control; (dose: 16.0 mg/kg/injection, schedule: Q01DX Z (oral), vehicle: saline) 100 % of control; (dose: 32.0 mg/kg/injection, schedule: Q01DX Z (oral), vehicle: saline) 110 % of control; (dose: 64.0 mg/kg/injection, schedule: Q01DX Z (oral), vehicle: saline) 100 % of control. Besides, the T/C was 104 % of control and 113 % of control (dose: 128.0 mg/kg/injection, schedule: Q01DX Z (oral), vehicle: saline); 98 % of control and 115 % of control (dose: 256.0 mg/kg/injection, schedule: Q01DX Z (oral), vehicle: saline).
Take `[Br][Bi]([Br])([c]1ccccc1)([c]1ccccc1)[c]1ccccc1`: the T/C is 97 % of control (dose: 12.5 mg/kg/injection, schedule: Q04DX002 (ip), vehicle: Klucel (hydroxypropylcellulose) (HPC)); 101 % of control (dose: 25.0 mg/kg/injection, schedule: Q04DX002 (ip), vehicle: Klucel (hydroxypropylcellulose) (HPC)); 104 % of control (dose: 50.0 mg/kg/injection, schedule: Q04DX002 (ip), vehicle: Klucel (hydroxypropylcellulose) (HPC)); 97 % of control under setting [1].
`COC(=O)c1ccccc1NC(=O)c1ccc(C(=O)Nc2ccccc2C(=O)OC)cc1`: the T/C was 107 % of control under setting [2], 92 % of control under setting [3] and 92 % of control under setting [4].
For `O=C1O/C(=C(\C(=O)O)c2ccccc2)C(O)=C1c1ccccc1`, the T/C is, setting by setting: under setting [2], 113 % of control; under setting [5], 103 % of control; under setting [3], 101 % of control; under setting [6], 97 % of control; under setting [4], 102 % of control; under setting [7], 108 % of control.
With `C#C/C(=N\Nc1ccc([N+](=O)[O-])cc1[N+](=O)[O-])c1ccccc1`, the T/C is, setting by setting: under setting [8], 91 % of control; under setting [9], 102 % of control; (dose: 300.0 mg/kg/injection, schedule: Q04DX002 (ip), vehicle: saline with Tween-80) 88 % of control.
Consider `COC(=O)/C=C(\C)C(C)=Nc1ccccc1`, for which the T/C is 106 % of control under setting [10] and 106 % of control under setting [11].
For `CC12CCC3c4cc(N)c(O)cc4CCC3C1CCC2=O` (configuration not stated), the T/C runs as follows: under setting [1], 92 % of control; under setting [12], 99 % of control; under setting [13], 101 % of control.
As for `COc1cc(CC2c3ccccc3CC[N+]2(C)C)c(Oc2cc(CC3c4ccccc4CC[N+]3(C)C)ccc2OC)cc1OC` (configuration not stated), the T/C (dose: 0.78 mg/kg/injection, schedule: Q01DX009 (ip), vehicle: Klucel (hydroxypropylcellulose) (HPC)) is 103 % of control; the T/C (dose: 1.56 mg/kg/injection, schedule: Q01DX009 (ip), vehicle: Klucel (hydroxypropylcellulose) (HPC)) was 97 % of control; the T/C (dose: 3.13 mg/kg/injection, schedule: Q01DX009 (ip), vehicle: Klucel (hydroxypropylcellulose) (HPC)) is 100 % of control.
In the case of `OC(c1ccccc1)(c1ccccc1)c1cccnc1`, the T/C is 105 % of control (dose: 75.0 mg/kg/injection, schedule: Q04DX002 (ip), vehicle: saline) and 93 % of control (dose: 150.0 mg/kg/injection, schedule: Q04DX002 (ip), vehicle: saline).
In the case of `Cc1cccc(C)c1OCC1=NCCN1`, the T/C is 105 % of control (dose: 12.0 mg/kg/injection, schedule: Q01DX009 (ip), vehicle: saline); 111 % of control (dose: 25.0 mg/kg/injection, schedule: Q01DX009 (ip), vehicle: saline); 108 % of control (dose: 50.0 mg/kg/injection, schedule: Q01DX009 (ip), vehicle: saline).
With `O=NN(CCF)C(=O)NC1CC2CCC1C2` (configuration not stated), the T/C is 108 % of control (dose: 3.12 mg/kg/injection, schedule: Q01DX001 (ip), vehicle: other); 104 % of control (dose: 5.7 mg/kg/injection, schedule: Q01DX001 (ip), vehicle: other); 118 % of control (dose: 6.25 mg/kg/injection, schedule: Q01DX001 (ip), vehicle: other); 150 % of control (dose: 12.5 mg/kg/injection, schedule: Q01DX001 (ip), vehicle: other); 180 % of control (dose: 23.0 mg/kg/injection, schedule: Q01DX001 (ip), vehicle: other); 180 % of control (dose: 25.0 mg/kg/injection, schedule: Q01DX001 (ip), vehicle: other). Further, the T/C was 308 % of control (dose: 37.0 mg/kg/injection, schedule: Q01DX001 (ip), vehicle: other); 361 % of control (dose: 37.5 mg/kg/injection, schedule: Q01DX001 (ip), vehicle: other); 310 % of control (dose: 46.0 mg/kg/injection, schedule: Q01DX001 (ip), vehicle: other); 348 % of control (dose: 56.0 mg/kg/injection, schedule: Q01DX001 (ip), vehicle: other).
For `O=C(Cc1ccccc1)O/C=C1/CCOC1=O`, the T/C is, setting by setting: under setting [1], 91 % of control; under setting [12], 91 % of control; under setting [13], 94 % of control.
Consider `Cc1cccc2c1C(=O)OC2(CC(=O)O)c1ccccc1` (configuration not stated), for which the T/C is, setting by setting: (dose: 37.5 mg/kg/injection, schedule: Q04DX002 (ip), vehicle: saline with Tween-80) 101 % of control; under setting [8], 101 % of control; under setting [9], 101 % of control.
`NC(=O)c1ccc([N+](=O)[O-])cc1C(N)=O`: the T/C is 111 % of control (dose: 25.0 mg/kg/injection, schedule: Q01DX001 (ip), vehicle: saline); 97 % of control (dose: 50.0 mg/kg/injection, schedule: Q01DX001 (ip), vehicle: saline); 104 % of control under setting [14].
As for `Cc1ccc(C(=O)C2CN(C)CCC2(O)c2ccc(C)cc2)cc1` (configuration not stated), the T/C reads like this: under setting [10], 96 % of control; under setting [11], 103 % of control; (dose: 400.0 mg/kg/injection, schedule: Q04DX003 (ip), vehicle: saline with Tween-80) 96 % of control.
Turning to `Cc1cc(C)c(N(CC(=O)O)S(=O)(=O)c2ccccc2)c(C)c1F`, the T/C runs as follows: under setting [15], 100 % of control; under setting [16], 94 % of control; under setting [17], 89 % of control.
`COC(=O)c1c2ccccc2[n+](C)c2ccccc12`: the T/C reads like this: (dose: 12.5 mg/kg/injection, schedule: Q04DX003 (ip), vehicle: saline) 96 % of control; (dose: 25.0 mg/kg/injection, schedule: Q04DX003 (ip), vehicle: saline) 100 % of control; (dose: 50.0 mg/kg/injection, schedule: Q04DX003 (ip), vehicle: saline) 102 % of control.
`O=C(OCCCl)c1ccccc1`: the T/C reads like this: (dose: 60.0 mg/kg/injection, schedule: Q01DX009 (ip), vehicle: Klucel (hydroxypropylcellulose) (HPC)) 103 % of control; under setting [15], 106 % of control; under setting [5], 101 % of control; (dose: 120.0 mg/kg/injection, schedule: Q01DX009 (ip), vehicle: Klucel (hydroxypropylcellulose) (HPC)) 100 % of control; under setting [16], 98 % of control; under setting [6], 101 % of control. Also, the T/C runs as follows: (dose: 240.0 mg/kg/injection, schedule: Q01DX009 (ip), vehicle: Klucel (hydroxypropylcellulose) (HPC)) 94 % of control; under setting [17], 98 % of control; under setting [7], 101 % of control.
With `CCOC(=O)NN(C(=O)OCC)c1c(N(C)NC(C)=O)nc(N)[nH]c1=O`, the T/C under setting [14] was 96 % of control; the T/C (dose: 200.0 mg/kg/injection, schedule: Q01DX001 (ip), vehicle: saline) is 86 % of control; the T/C (dose: 400.0 mg/kg/injection, schedule: Q01DX001 (ip), vehicle: saline) is 96 % of control.
